The values below come from patent US11236106B2, “Cycloalkane-1,3-diamine derivative” (Daiichi Sankyo Company, Limited, priority 2018, dated 2022).

The subject of one experiment is K562 cells. Put plainly: cells. The note with it: Homo sapiens.
A further experiment concerns MV-4-11 cells. In words: cells. The note with it: Homo sapiens.
In the next experiment the test system is MOLM-13 cells. In words: cells. The note with it: Homo sapiens.
For experiment [1], the target named is T1, menin and MLL (menin, Flag tagged; biotinylated MLL1 peptide 1-46aa) (Homo sapiens, UniProt O00255).
T1 sequence (O00255 1-610): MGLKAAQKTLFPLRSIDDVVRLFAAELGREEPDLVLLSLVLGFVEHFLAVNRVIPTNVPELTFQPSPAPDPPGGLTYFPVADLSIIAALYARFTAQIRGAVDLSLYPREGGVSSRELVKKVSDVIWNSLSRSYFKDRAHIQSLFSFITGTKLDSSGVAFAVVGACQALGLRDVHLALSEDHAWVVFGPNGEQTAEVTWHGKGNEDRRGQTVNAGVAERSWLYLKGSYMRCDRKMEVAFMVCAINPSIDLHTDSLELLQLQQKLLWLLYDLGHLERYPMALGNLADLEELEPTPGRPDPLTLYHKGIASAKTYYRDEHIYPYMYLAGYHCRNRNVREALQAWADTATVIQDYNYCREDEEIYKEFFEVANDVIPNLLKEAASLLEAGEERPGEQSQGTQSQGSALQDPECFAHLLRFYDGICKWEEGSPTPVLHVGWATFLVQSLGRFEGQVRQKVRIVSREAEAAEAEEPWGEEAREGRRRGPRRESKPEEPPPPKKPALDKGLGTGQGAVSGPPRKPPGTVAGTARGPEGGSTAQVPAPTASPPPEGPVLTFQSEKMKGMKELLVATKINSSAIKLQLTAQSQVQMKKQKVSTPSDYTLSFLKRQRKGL
In words: biochemical.
Method: Then, the fluorescence signal by AlphaLISA (registered trademark, PerkinElmer Co., Ltd.) was measured using a plate reader (PerkinElmer Co., Ltd., EnVisionXcite).

Setting [2] is: IC50, binding inhibitory activity between menin and MLL, AlphaLISA, 1 nM menin, 10 nM biotinylated MLL1 peptide.
[3] abbreviates: K562, 72 h, read-out: GI50 (μM) Day3 K562.
Where [4] appears, read: MV4-11, 72 h, read-out: GI50 (μM) Day3 MV4;11.
The mark [5] stands for this setting: MOLM-13, 72 h, read-out: GI50 (μM) Day3 MOLM-13.
Where [6] appears, read: cell free IC50 (nM), 1 nM menin, 10 nM biotinylated MLL1 peptide, AlphaLISA.
Setting [7] is: K562, 168 h, read-out: GI50 (μM) Day7 K562.
Where [8] appears, read: MV4-11, 168 h, read-out: GI50 (μM) Day7 MV4;11.
The mark [9] stands for this setting: MOLM-13, 168 h, read-out: GI50 (μM) Day7 MOLM-13.

Counter-ions that a name gives are not always drawn. Like-named read-outs stand apart in the source and are kept apart here.

Method for K562 cells: (§1) RPMI1640 medium supplemented with 10% FBS was used as a culture medium for each cells (MV-4-11, MOLM-13 cells, human AML cells, K562 cells, human CML cells). […] The prepared drug-containing plate was stored at −30° C. until use, and thawed before use.
(§2) The suspension of each cells was prepared with 10% FBS RPMI1640 culture medium so as to be 1000 cells/mL (K562) or 10000 cells/mL (MV-4-11, MOLM-13), and seeded on the drug-containing plate (40 μL/well) (day 0). The cells were cultured for additional 3 or 7 days. ATP measurement reagent (CellTiter-Glo (registered trademark, Promega Corporation) 2.0 Assay, model number G9242, Promega Corporation) was added to each well at 10 μL/well, on the day of the drug addition (day 0) and 3 days (day 3) or 7 days (day 7) after the drug addition. After affixing a black sticker on the bottom surface, the mixture was stirred using a microplate mixing deaeration machine (model name, Weltornado FK-62, Sakaki Dengyo Co., Ltd.) (stirring conditions, revolution 9, rotation 7, time 12).
(§3) The cell growth of the drug-added group from day 0 to day 3 or day 7 was calculated as T/C %, when the cell growth of the drug-free group was considered as 100%.
Method for MOLM-13 cells: as §1, §2, §3
Method for MV-4-11 cells: as §1, §2, §3

The GI50 is the concentration giving 50% growth inhibition. One may read the IC50 as the point on the concentration scale where inhibition reaches its midpoint. Regarding `COc1cc(-c2ccc(CN[C@H]3C[C@@H](O)[C@@H](N(C)c4ncncc4Oc4ccc(F)c(F)c4C(=O)N(C(C)C)C(C)C)C3)cc2)nnc1OC` [Example 104, 6-[(4-{[(1S,2R,4R)-4-({[4-(5,6-dimethoxypyridazin-3-yl)phenyl]methyl}amino)-2-hydroxycyclopentyl](methyl)amino}pyrimidin-5-yl)oxy]-2,3-difluoro-N,N-di(propan-2-yl)benzamide hydrochloride], the GI50 in the experiment with K562 cells (K562, 72 h, read-out: GI50, cell growth inhibitory activity, K562, day 3) is more than 5 µM; in the experiment on K562 cells (K562, 168 h, read-out: GI50, cell growth inhibitory activity, K562, day 7) it was more than 5 µM; in the experiment with MV-4-11 cells (MV4-11, 72 h, read-out: GI50, cell growth inhibitory activity, MV-4-11, day 3), 0.097 µM; in the experiment on MV-4-11 cells (MV4-11, 168 h, read-out: GI50, cell growth inhibitory activity, MV-4-11, day 7), 0.066 µM; with MOLM-13 cells (MOLM-13, 72 h, read-out: GI50, cell growth inhibitory activity, MOLM-13, day 3), 0.7 µM; in the experiment with MOLM-13 cells (MOLM-13, 168 h, read-out: GI50, cell growth inhibitory activity, MOLM-13, day 7) it was 0.187 µM. Further, in experiment [1] (setting [2]), the IC50 came out at 6.3 nM.

On to `CC(N[C@H]1CC[C@@H](N(C)c2ncnc3sc(CC(F)(F)F)cc23)C1)c1ccccc1` (mixture of isomers) [Example 33, (1R,3S)-N^1-methyl-N^3-(1-phenylethyl)-N^1-[6-(2,2,2-trifluoroethyl)thieno[2,3-d]pyrimidin-4-yl]cyclopentane-1,3-diamine (diastereomer mixture)], for which the values for the GI50 in the experiment with K562 cells (setting [3]), in the experiment with MV-4-11 cells (setting [4]) and in the experiment with MOLM-13 cells (setting [5]) were 6.44 µM, 5.22 µM and 4.82 µM, respectively. The compound also registered an IC50 in experiment [1] (setting [6]) of 2420 nM.

`COc1cncc(-c2ccc(CN[C@@H]3C[C@H](Nc4ncnc5sc(CC(F)(F)F)cc45)C[C@H](c4ncco4)C3)cc2)c1` (single isomer, unassigned) [Example 19A, Hydrochloride]: the concentration for 50% growth inhibition (GI50) in the experiment with K562 cells (setting [3]) amounted to 5.51 µM; with K562 cells (setting [7]) it was 5.39 µM; in the experiment on MV-4-11 cells (setting [4]) it was 0.489 µM; with MV-4-11 cells (setting [8]), 0.295 µM; in the experiment on MOLM-13 cells (setting [5]), 3.2 µM; in the experiment on MOLM-13 cells (setting [9]), 0.906 µM. Besides, it took 33.5 nM to reach half-maximal inhibition in experiment [1] (setting [6]) (IC50).

For the compound `COc1cncc(-c2ccc(CN[C@H]3C[C@@H](Nc4ncnc5sc(CC(F)(F)F)cc45)C[C@@H](c4ncco4)C3)cc2)c1` (single isomer, unassigned) [Example 19B, Hydrochloride], the GI50 in the experiment with K562 cells (setting [3]) is 5.45 µM; in the experiment with K562 cells (setting [7]), 5.41 µM; in the experiment on MV-4-11 cells (setting [4]), 3.18 µM; in the experiment on MV-4-11 cells (setting [8]), 2.6 µM; with MOLM-13 cells (setting [5]), 4.03 µM; in the experiment with MOLM-13 cells (setting [9]), 5.75 µM. Also, in experiment [1] (setting [6]), the IC50 was 1810 nM.

For the compound `COc1cncc(-c2ccc(CN[C@H]3C[C@@H](Nc4ncnc5sc(CC(F)(F)F)cc45)C[C@@H](OC)C3)cc2)c1` (single isomer, unassigned) [Example 18B, Hydrochloride], the GI50 came to 5.18 µM in the experiment on K562 cells (setting [3]); 4.71 µM with K562 cells (setting [7]); 2.16 µM in the experiment on MV-4-11 cells (setting [4]); 1.47 µM in the experiment with MV-4-11 cells (setting [8]); 3.08 µM with MOLM-13 cells (setting [5]); 3.97 µM in the experiment with MOLM-13 cells (setting [9]). Also, it took 182 nM to reach half-maximal inhibition in experiment [1] (setting [6]) (IC50).

`COc1cncc(-c2ccc(CN[C@@H]3C[C@H](Nc4ncnc5sc(CC(F)(F)F)cc45)C[C@H](OC)C3)cc2)c1` (single isomer, unassigned) [Example 18A, Hydrochloride]: the GI50 in the experiment on K562 cells (setting [3]) came out at 5.7 µM; with K562 cells (setting [7]) it was 5.01 µM; in the experiment on MV-4-11 cells (setting [4]), 0.26 µM; with MV-4-11 cells (setting [8]), 0.131 µM; in the experiment on MOLM-13 cells (setting [5]) it was 2.83 µM; with MOLM-13 cells (setting [9]), 0.448 µM. Besides, in experiment [1] (setting [6]), the midpoint of inhibition, the IC50, lay at 10.3 nM.

In experiment [1] (setting [2]), `COc1cnc(-c2ccc(CN[C@H]3C[C@@H](O)[C@@H](N(C)c4ncnc5sc(CC(F)(F)F)cc45)C3)cc2)nc1OC` [Example 97, (1R,2S,4R)-4-({[4-(4,5-dimethoxypyrimidin-2-yl)phenyl]methyl}amino)-2-{methyl[6-(2,2,2-trifluoroethyl)thieno[2,3-d]pyrimidin-4-yl]amino}cyclopentan-1-ol hydrochloride] returned an IC50 of 3.9 nM.

Take `CNC(=O)c1cccc(-c2ccc(CN[C@H]3CC[C@@H](N(C)c4ncnc5sc(CC(F)(F)F)cc45)C3)cc2)c1` [Example 66, N-methyl-4′-({[|(1S,3R)-3-{methyl[6-(2,2,2-trifluoroethyl)thieno[2,3-d]pyrimidin-4-yl]amino}cyclopentyl]amino}methyl)[1,1′-biphenyl]-3-carboxamide hydrochloride]: the 50% inhibitory concentration (IC50) in experiment [1] (setting [2]) worked out at 6.7 nM.

`CN(c1ncnc2sc(CC(F)(F)F)cc12)[C@H]1C[C@@H](NCc2cccc(-c3cccnc3)c2)C[C@H]1O` [Example 124, (1R,2S,4R)-2-{methyl[6-(2,2,2-trifluoroethyl)thieno[2,3-d]pyrimidin-4-yl]amino}-4-({[3-(pyridin-3-yl)phenyl]methyl}amino)cyclopentan-1-ol hydrochloride]: in experiment [1] (setting [2]), the IC50 was found to be 182 nM.

With `COc1nc(N(C)[C@H]2C[C@@H](NCc3ccc(-c4nn(C(F)F)c(=O)cc4OC)cc3)C[C@H]2O)c2cc(CC(F)(F)F)sc2n1` [Example 111, 2-(difluoromethyl)-6-[4-({[(1R,3R,4S)-3-hydroxy-4-{[2-methoxy-6-(2,2,2-trifluoroethyl)thieno[2,3-d]pyrimidin-4-yl](methyl)amino}cyclopentyl]amino}methyl)phenyl]-5-methoxypyridazin-3(2H)-one hydrochloride], the IC50 in experiment [1] (setting [2]) is 42.3 nM.

Regarding `COCCOc1nnc(-c2ccc(CN[C@H]3C[C@@H](O)[C@@H](N(C)c4nc(OC)nc5sc(CC(F)(F)F)cc45)C3)cc2)cc1OC` [Example 109, (1R,2S,4R)-4-[({4-[5-methoxy-6-(2-methoxyethoxy)pyridazin-3-yl]phenyl}methyl)amino]-2-{[2-methoxy-6-(2,2,2-trifluoroethyl)thieno[2,3-d]pyrimidin-4-yl](methyl)amino}cyclopentan-1-ol hydrochloride], in experiment [1], inhibition was half-maximal at 0.7 nM (IC50).

`COc1nc(N(C)[C@H]2C[C@@H](NCc3ccc(-c4nnc(OC(F)F)cc4OC)cc3)C[C@H]2O)c2cc(CC(F)(F)F)sc2n1` [Example 110, (1R,2S,4R)-4-[({4-[6-(difluoromethoxy)-4-methoxypyridazin-3-yl]phenyl}methyl)amino]-2-{[2-methoxy-6-(2,2,2-trifluoroethyl)thieno[2,3-d]pyrimidin-4-yl](methyl)amino}cyclopentan-1-ol hydrochloride] returned a half-maximal inhibitory concentration (IC50) in experiment [1] (setting [2]) of 2.1 nM.

Compound `COc1cncc(-c2ccc(CN[C@@H]3C[C@H](Nc4ncnc5sc(CC(F)(F)F)cc45)C[C@H](C(=O)N(C)C)C3)cc2)c1` (single isomer, unassigned) [Example 17B, Hydrochloride] showed a concentration for half-maximal inhibition (IC50) in experiment [1] (setting [6]) of 13.3 nM.

As for `CCOc1cc(-c2ccc(CN[C@H]3C[C@@H](O)[C@@H](N(C)c4ncnc5sc(CC(F)(F)F)cc45)C3)cc2)cnc1OC` [Example 80, (1R,2S,4R)-4-({[4-(5-ethoxy-6-methoxypyridin-3-yl)phenyl]methyl}amino)-2-{methyl[6-(2,2,2-trifluoroethyl)thieno[2,3-d]pyrimidin-4-yl]amino}cyclopentan-1-ol hydrochloride], in experiment [1], it took 15.4 nM to reach half-maximal inhibition (IC50).
